The source of these data is US10343992B2, “1-cyano-pyrrolidine compounds as USP30 inhibitors” (MISSION THERAPEUTICS LIMITED, priority 2015, dated 2019).

For the assay, the target named is USP30 (Homo sapiens (Human), UniProt Q70CQ3). Nature of the assay: USP30 biochemical FP or FI IC50 assay. The following applies: read-out: IC50 range. How it is done: USP30 Biochemical IC50 Assay
Chain of USP30 (Q70CQ3 57-517): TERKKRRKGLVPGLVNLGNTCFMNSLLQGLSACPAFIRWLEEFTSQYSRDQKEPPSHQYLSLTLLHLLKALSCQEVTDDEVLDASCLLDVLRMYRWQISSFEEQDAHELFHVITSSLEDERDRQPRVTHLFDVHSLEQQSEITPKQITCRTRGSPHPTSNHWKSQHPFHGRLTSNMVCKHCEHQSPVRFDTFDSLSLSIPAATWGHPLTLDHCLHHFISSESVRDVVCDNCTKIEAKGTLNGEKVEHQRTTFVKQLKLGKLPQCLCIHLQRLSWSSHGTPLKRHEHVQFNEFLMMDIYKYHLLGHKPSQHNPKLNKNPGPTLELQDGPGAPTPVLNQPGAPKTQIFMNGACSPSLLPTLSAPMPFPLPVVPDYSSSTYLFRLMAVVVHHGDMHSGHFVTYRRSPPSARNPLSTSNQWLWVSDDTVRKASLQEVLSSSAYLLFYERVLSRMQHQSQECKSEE
Dilution plates were prepared at 21 times the final concentration (2100 μM for a final concentration of 100 μM) in 50% DMSO in a 96-well polypropylene V-bottom plate (Greiner #651201). A typical 8-point dilution series would be 100, 30, 10, 3, 1, 0.3, 0.1, 0.03 μM final. Reactions were performed in duplicate in black 384 well plates (small volume, Greiner 784076) in a final reaction volume of 21 μl. Either 1 μl of 50% DMSO or diluted compound was added to the plate. USP30 was diluted in reaction buffer (40 mM Tris, pH 7.5, 0.005% Tween 20, 0.5 mg/ml BSA, 5 mM—beta-mercaptoethanol) to the equivalent of 0.05 μl/well and 10 μl of diluted USP30 was added to the compound. Enzyme and compound were incubated for 30 min at room temp. Reactions were initiated by the addition of 50 nM of TAMRA labelled peptide linked to ubiquitin via an iso-peptide bond as fluorescence polarisation substrate. Reactions were read immediately after addition of substrate and following a 2 hr incubation at room temperature. Readings were performed on a Pherastar Plus (BMG Labtech). λ Excitation 540 nm; λ Emission 590 nm.
USP30 Biochemical Fluorescence Intensity IC50 Assay
Dilution plates were prepared at 21 times the final concentration (2100 μM for a final concentration of 100 μM) in 50% DMSO in a 96-well polypropylene V-bottom plate (Greiner #651201). A typical 8-point dilution series would be 100, 30, 10, 3, 1, 0.3, 0.1, 0.03 μM final. Reactions were performed in duplicate in black 384 well plates (small volume, Greiner 784076) in a final reaction volume of 21 μl.
Either 1 μl of 50% DMSO or diluted compound was added to the plate. USP30 was diluted in reaction buffer (40 mM Tris, pH 7.5, 0.005% Tween 20, 0.5 mg/ml BSA, 5 mM—beta-mercaptoethanol) to the equivalent of 0.001 μl/well and 10 μl of diluted USP30 was added to the compound. Enzyme and compound were incubated for 30 min at room temp. Reactions were initiated by the addition of Ubiquitin-Rhodamine 110 (U-555; Boston Biochem) at a final concentration of 100 nM. Reactions were read immediately after addition of substrate and following a 2 h incubation at room temperature. Readings were performed on a Pherastar Plus (BMG Labtech). λ Excitation 487 nm; λ Emission 535 nm.
In the case of `Cn1cc(-c2ccc(C(=O)N[C@@H]3CN(C#N)C[C@@H]3C3CC3)cc2F)cn1` (relative stereo) [Example 177, N-((cis)-1-cyano-4-cyclopropylpyrrolidin-3-yl)-3-fluoro-4-(1-methyl-1H-pyrazol-4-yl)benzamide], the half-maximal inhibitory concentration (IC50) (in general, the point on the concentration scale where inhibition reaches its midpoint) lay within 100 to 1000 nM.

Consider `CO[C@H]1CN(C#N)C[C@@H]1N(C)C(=O)c1ccc(-c2cnn(C)c2)cc1` (relative stereo) [Example 178, N-((trans)-1-cyano-4-methoxypyrrolidin-3-yl)-N-methyl-4-(1-methyl-1H-pyrazol-4-yl)benzamide], for which the concentration for half-maximal inhibition (IC50) was 100 to 1000 nM. Then `N#CN1C[C@H]2CCN(C(=O)c3cc(-c4ccccc4)n[nH]3)[C@H]2C1` (stereo in doubt) [Example 246, 1-(3-phenyl-1H-pyrazole-5-carbonyl)hexahydropyrrolo[3,4-b]pyrrole-5(1H)-carbonitrile], with 100 to 1000 nM; and `N#CN1CC[C@@H](NC(=O)c2ccc(-c3ccccc3)cn2)C1` [Example 1, (R)—N-(1-cyanopyrrolidin-3-yl)-5-phenylpicolinamide], with 100 to 1000 nM; and `COc1cc(C(=O)N[C@@H]2CCN(C#N)C2)ccc1-c1cnn(C)c1` [Example 2, (R)—N-(1-cyanopyrrolidin-3-yl)-3-methoxy-4-(1-methyl-1H-pyrazol-4-yl)benzamide], with less than 100 nM. As to `N#CN1CCC(NC(=O)c2ccc(-c3ccccc3Cl)cc2)C1` (stereo not drawn) [Example 3, 2′-chloro-N-(1-cyanopyrrolidin-3-yl)-[1,1′-biphenyl]-4-carboxamide], the IC50 is less than 100 nM. `CN(Cc1ccccc1)c1ccc(C(=O)NC2CCN(C#N)C2)cn1` (stereo not drawn) [Example 4, 6-(benzyl(methyl)amino)-N-(1-cyanopyrrolidin-3-yl)nicotinamide]: the IC50 was in the range of 100 to 1000 nM. Then `N#CN1CC[C@@H](NC(=O)N2CC(c3ccccc3)C2)C1` [Example 5, (R)—N-(1-cyanopyrrolidin-3-yl)-3-phenylazetidine-1-carboxamide], with 100 to 1000 nM; and `C[C@@H]1CN(c2ccc(C(=O)N[C@@H]3CCN(C#N)C3)cc2F)C[C@H](C)O1` [Example 6, N—((R)-1-cyanopyrrolidin-3-yl)-4-((cis)-2,6-dimethylmorpholino)-3-fluorobenzamide], with 100 to 1000 nM. Then `N#CN1CCC(NC(=O)c2ccc(N3CCC(Oc4ccccc4)CC3)nc2)C1` (stereo not drawn) [Example 22, N-(1-cyanopyrrolidin-3-yl)-6-(4-phenoxypiperidin-1-yl)nicotinamide], with 100 to 1000 nM; and `N#CN1CCC(NC(=O)c2ccnc(N3CCc4ccccc4C3)c2)C1` (stereo not drawn) [Example 27, N-(1-cyanopyrrolidin-3-yl)-2-(3,4-dihydroisoquinolin-2(1H)-yl)isonicotinamide], with 100 to 1000 nM; and `N#CN1CC[C@@H](NC(=O)c2cccc(-c3ccccc3)n2)C1` [Example 29, (R)-N-(1-cyanopyrrolidin-3-yl)-6-phenylpicolinamide], with 100 to 1000 nM. Then `N#CN1CC[C@@H](NC(=O)c2cc(-c3ccccc3)ccn2)C1` [Example 30, (R)-N-(1-cyanopyrrolidin-3-yl)-4-phenylpicolinamide], with 100 to 1000 nM; and `N#CN1CC[C@@H](NC(=O)c2ccc(N3CCOCC3)c(F)c2)C1` [Example 32, (R)-N-(1-cyanopyrrolidin-3-yl)-3-fluoro-4-morpholinobenzamide], with 100 to 1000 nM; and `N#CN1CC[C@@H](NC(=O)c2cc(-c3ccccc3)no2)C1` [Example 33, (R)-N-(1-cyanopyrrolidin-3-yl)-3-phenylisoxazole-5-carboxamide], with 100 to 1000 nM. For the molecule `N#CN1CC[C@@H](NC(=O)c2cc(-c3ccncc3)on2)C1` [Example 34, (R)-N-(1-cyanopyrrolidin-3-yl)-5-(pyridin-4-yl)isoxazole-3-carboxamide], the half-inhibitory concentration (IC50) is 100 to 1000 nM.

Regarding `N#CN1CC[C@@H](NC(=O)c2ccc(-c3ccccc3)cc2)C1` [Example 35, (R)-N-(1-cyanopyrrolidin-3-yl)-[1,1′-biphenyl]-4-carboxamide], the concentration for half-maximal inhibition (IC50) is less than 100 nM.

As to `N#CN1CC[C@@H](NC(=O)c2cnc(-c3ccccc3Cl)s2)C1` [Example 37, (R)-2-(2-chlorophenyl)-N-(1-cyanopyrrolidin-3-yl)thiazole-5-carboxamide], the IC50 was less than 100 nM.

`N#CN1CC[C@@H](NC(=O)c2ccc(-c3ccncc3Cl)cc2)C1` [Example 38, (R)-4-(3-chloropyridin-4-yl)-N-(1-cyanopyrrolidin-3-yl)benzamide]: the IC50 was less than 100 nM. Then `COc1cc(C(=O)N[C@@H]2CCN(C#N)C2)ccc1-c1ccncc1Cl` [Example 39, (R)-4-(3-chloropyridin-4-yl)-N-(1-cyanopyrrolidin-3-yl)-3-methoxybenzamide], with less than 100 nM; and `COc1cc(C(=O)N[C@@H]2CCN(C#N)C2)ccc1-c1ccnc(C)c1` [Example 40, (R)-N-(1-cyanopyrrolidin-3-yl)-3-methoxy-4-(2-methylpyridin-4-yl)benzamide], with less than 100 nM.

Take `COc1cc(C(=O)N[C@@H]2CCN(C#N)C2)ccc1-c1ccnc(N2CCOCC2)c1` [Example 41, (R)-N-(1-cyanopyrrolidin-3-yl)-3-methoxy-4-(2-morpholinopyridin-4-yl)benzamide]: the IC50 lay in the range of 100 to 1000 nM. Then `N#CN1CC[C@@H](NC(=O)c2ccc(F)c(-c3ccncc3)c2)C1` [Example 42, (R)-N-(1-cyanopyrrolidin-3-yl)-4-fluoro-3-(pyridin-4-yl)benzamide], with 100 to 1000 nM; and `Cn1cc(-c2cc(C(=O)N[C@@H]3CCN(C#N)C3)ccc2F)cn1` [Example 43, (R)-N-(1-cyanopyrrolidin-3-yl)-4-fluoro-3-(1-methyl-1H-pyrazol-4-yl)benzamide], with 100 to 1000 nM. Then `Cn1cc(-c2ccc(C(=O)N[C@@H]3CCN(C#N)C3)cc2)cn1` [Example 44, (R)-N-(1-cyanopyrrolidin-3-yl)-4-(1-methyl-1H-pyrazol-4-yl)benzamide], with less than 100 nM; and `Cn1cc(-c2cnc(C(=O)N[C@@H]3CCN(C#N)C3)nc2)cn1` [Example 45, (R)-N-(1-cyanopyrrolidin-3-yl)-5-(1-methyl-1H-pyrazol-4-yl)pyrimidine-2-carboxamide], with 100 to 1000 nM. Then `N#CN1CC[C@@H](NC(=O)N2CCC(c3ccccc3)C2)C1` (stereo partly drawn) [Example 46, N-((R)-1-cyanopyrrolidin-3-yl)-3-phenylpyrrolidine-1-carboxamide], with 100 to 1000 nM.

Turning to `N#CN1CC[C@H](NC(=O)c2ccc(-c3ccncc3)cc2)C1` [Example 47, (S)-N-(1-cyanopyrrolidin-3-yl)-4-(pyridin-4-yl)benzamide], the 50% inhibitory concentration (IC50) lay in the range of 1000 to 10000 nM. Then `N#CN1CC[C@H](NC(=O)c2cccc(-c3ccccc3)n2)C1` [Example 48, (S)-N-(1-cyanopyrrolidin-3-yl)-6-phenylpicolinamide], with 1000 to 10000 nM; and `CN(C(=O)c1ccc(-c2ccncc2Cl)cc1)[C@@H]1CCN(C#N)C1` [Example 49, (R)-4-(3-chloropyridin-4-yl)-N-(1-cyanopyrrolidin-3-yl)-N-methylbenzamide], with 100 to 1000 nM; and `CN(C(=O)Nc1cn2ccccc2n1)[C@@H]1CCN(C#N)C1` [Example 50, (R)-1-(1-cyanopyrrolidin-3-yl)-3-(imidazo[1,2-a]pyridin-2-yl)-1-methylurea], with 100 to 1000 nM. Then `N#CN1C[C@H]2CCN(C(=O)c3ccc(-c4ccccc4)[nH]c3=O)[C@H]2C1` [Example 61, (3aR,6aR)-1-(2-oxo-6-phenyl-1,2-dihydropyridine-3-carbonyl)hexahydropyrrolo[3,4-b]pyrrole-5(1H)-carbonitrile], with 100 to 1000 nM; and `CC(C)C(=O)N(C)c1cccc(C(=O)N[C@@H]2CCN(C#N)C2)c1` [Example 62, (R)—N-(1-cyanopyrrolidin-3-yl)-3-(N-methylisobutyramido)benzamide], with 100 to 1000 nM; and `N#CN1CC[C@@H](NC(=O)c2ncc(-c3ccccc3)cn2)C1` [Example 63, (R)—N-(1-cyanopyrrolidin-3-yl)-5-phenylpyrimidine-2-carboxamide], with 100 to 1000 nM. Take `N#CN1CC[C@@H](NC(=O)c2cc(-c3ccncc3)no2)C1` [Example 64, (R)—N-(1-cyanopyrrolidin-3-yl)-3-(pyridin-4-yl)isoxazole-5-carboxamide]: the half-maximal inhibitory concentration (IC50) was 100 to 1000 nM. `N#CN1CC[C@@H](NC(=O)c2cc(-c3cccnc3)no2)C1` [Example 65, (R)-N-(1-cyanopyrrolidin-3-yl)-3-(pyridin-3-yl)isoxazole-5-carboxamide]: the IC50 lay in the range of 100 to 1000 nM.
